Entries after “also recorded” stand apart in the source; their conditions may differ.
What was measured:
HDAC4:MEF2 interaction = molecular target: T1, HDAC4:MEF2 interaction (Homo sapiens, UniProt Q14814); experiment: Mammalian two-hybrid luciferase reporter assay (GAL4-MEF2D / HDAC4-VP16 / GAL4Luc); format: cell-based
T1 sequence (Q14814 1-521): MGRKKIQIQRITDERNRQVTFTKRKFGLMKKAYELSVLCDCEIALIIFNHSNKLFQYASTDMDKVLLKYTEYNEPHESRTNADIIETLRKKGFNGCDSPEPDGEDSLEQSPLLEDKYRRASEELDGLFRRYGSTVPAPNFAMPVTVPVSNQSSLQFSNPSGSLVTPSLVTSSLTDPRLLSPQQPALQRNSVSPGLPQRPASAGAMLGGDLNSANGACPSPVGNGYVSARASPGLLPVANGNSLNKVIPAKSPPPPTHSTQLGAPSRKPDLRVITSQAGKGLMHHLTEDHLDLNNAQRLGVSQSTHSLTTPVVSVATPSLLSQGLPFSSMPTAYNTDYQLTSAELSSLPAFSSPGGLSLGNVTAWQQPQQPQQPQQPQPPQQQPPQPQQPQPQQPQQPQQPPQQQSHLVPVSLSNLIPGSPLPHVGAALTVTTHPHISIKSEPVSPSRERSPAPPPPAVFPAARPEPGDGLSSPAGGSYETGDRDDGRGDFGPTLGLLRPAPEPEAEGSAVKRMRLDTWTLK
Description: In a preferred embodiment, there is disclosed herein a two-hybrid system based assay includes a binding domain fused with a bait, an activating domain fused with a prey, and a reporter gene; and determining a reporter signal level.
A series of MEF2-dependent luciferase reporter assays with transiently transfected MEF2D, HDAC4 and the co-activator p300 were used initially to screen various compounds. But these assays gave weak signal and high frequency of false positives, probably due to the complex transcription activation mechanisms of MEF2 and interference from endogenous factors. Through these observations, it was discovered that a highly sensitive and specific assay that can recapitulate the molecular interaction between HDAC4 and MEF2 inside cells is essential.
Taking advantage of the structural insights, in addition to the MEF2D L67D mutant mentioned above, we introduced a number mutations in HDAC4 that had been previously shown to disrupt HDAC4:MEF2 interaction in vitro. These mutations also diminished the luciferase signal in the cell-based assay (FIG. 3b).

MEF2A (1-95) = molecular target: T2, MEF2A (1-95) (Homo sapiens, UniProt Q02078); experiment: Surface plasmon resonance (Biacore T-100) competition: MEF2A (1-95) binding to immobilized HDAC4 (aa 155-220); conditions: for binding of MEF2A to immobilized HDAC4 after incubation with compound: Biacore, increasing concentrations (FIG. 5)
T2 construct: purified MEF2A (1-95) was used as the analyte
T2 sequence (Q02078 1-95): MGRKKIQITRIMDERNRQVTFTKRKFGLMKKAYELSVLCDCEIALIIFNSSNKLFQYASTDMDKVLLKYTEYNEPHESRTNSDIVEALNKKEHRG
Description: Here HDAC4 (aa 155-220) was immobilized on a CM5 sensor chip and purified MEF2A (1-95) was used as the analyte. The binding of MEF2A to HDAC4 at various concentrations generated a series of well-defined sensorgrams (data not shown). […] These technical limitations made it difficult to obtain a quantitative binding constant.

GAL4-VP16 = conditions: 10 μM; non-specific inhibition
frataxin expression = conditions: Friedreich's ataxia; cited from earlier work
[1] = test system: acetylation of histone but not tubulin; conditions: cited from earlier work
HDAC = conditions: cited from earlier work
MEF2 = experiment: in vitro binding, method not stated

## Nc1ccccc1NC(=O)CCCCCC(=O)Nc1ccccc1 [PAOA, pimeloylanilide orthoaminoanilide]
HDAC4:MEF2 interaction
  expression of HDAC4-VP16: did not affect
HDAC4:MEF2 interaction; 10 μM
  decrease of reporter signal driven by GAL4-MEF2D and HDAC4-VP16: about 26 fold
HDAC4:MEF2 interaction; GAL4-MEF2D/HDAC4-VP16, Hela cells
  inhibition of the reporter signal in the mammalian two-hybrid assay: inhibited the reporter signal in a dose dependent manner
HDAC4:MEF2 interaction; based on the mammalian two-hybrid assay
  IC50: ~5 µM
HDAC4:MEF2 interaction; estimated assuming equilibrium HDAC4 concentration ~0.5 μM and HDAC4:MEF2 Kd 0.47 μM, read-out: Kd for binding to MEF2 (estimated)
  Kd: ~5 µM
MEF2A (1-95)
  binding of MEF2A to immobilized HDAC4 after incubation with compound: dose dependent decrease; also recorded: binds MEF2 competitively with HDAC4
GAL4-VP16
  reduction of reporter signal driven by GAL4-VP16: 5.6 fold
Frataxin expression
  frataxin expression / induction: enhance the expression of frataxin
[1]
  selective induction of histone versus tubulin acetylation: selectively induce acetylation of histone but not tubulin

## CC(/C=C/C(=O)NO)=C\[C@@H](C)C(=O)c1ccc(N(C)C)cc1 [trichostatin A (TSA), trichostatin A]
Frataxin expression
  frataxin expression / induction: no effect
HDAC
  IC50 HDAC inhibition: low nanomolar range

## Nc1ccccc1NC(=O)CCCCCCC(=O)Nc1ccccc1 [BML-210, suberoylanilide orthoaminoanilide]
HDAC4:MEF2 interaction; 24 hrs after treatment (FIG. 4)
  normalized luciferase activity in MEF2-HDAC luciferase reporter assay: decreased in a dose dependent manner
MEF2A (1-95)
  direct binding to MEF2 by Biacore: beyond the detection limit
  binding of MEF2A to immobilized HDAC4 after incubation with compound: bind MEF2 competitively with HDAC4; also recorded: competitive inhibition

## HDAC4 mutant Val180Lys (in vitro binding) (from UniProt P56524 155-220)
MEF2
  Kd: 0.81 µM
  weakening of binding against wild type HDAC4: 60%

## Cc1ccc(NC(=O)CCCCCC(=O)Nc2ccccc2N)cc1 [compound 106, N^1-(2-aminophenyl)-N^7-p-tolylheptanediamide]
Frataxin expression
  frataxin expression / induction: very active

## O=C(CCCCCCC(=O)Nc1ccccc1)NO [SAHA, Vorinostat]
Frataxin expression
  frataxin expression / induction: no effect; also recorded: did not have this type of activity

## wild type HDAC4 (in vitro binding) (from UniProt P56524 155-220)
MEF2
  Kd: 0.47 µM

Reference: patent US8697729B2, “Small molecules modulator of epigenetic regulation and their therapeutic applications” (University of Southern California, priority 2008, dated 2014)
